Source: ChEMBL document CHEMBL1287767, “Experimental solubility profiling of marketed CNS drugs, exploring solubility limit of CNS discovery candidate” (Bioorg Med Chem Lett, 2010)
≈ marks a conversion by molar mass, not a printed value.

What was measured:
[1] = Solubility of the compound in 0.1 M phosphate buffer at 600 uM at pH 7.4 after 24 hrs by LC/MS/MS analysis; details: pH 7.4
[2] = Solubility of the compound in water; format: physicochemical
[3] = Solubility of the compound at pH 7.4; format: physicochemical; details: buffer
[4] = Solubility of the compound in water at pH 7; format: physicochemical
[5] = Solubility of the compound in water at pH 7.4; format: physicochemical
[6] = Solubility of the compound in PBS at pH 7.4; format: physicochemical
[7] = Solubility of the compound in Mcllvaine buffer at pH 7.4; format: physicochemical; details: McIlvaine buffer

SMILES | solubility at 24 h, 600 µM ([1]; 0.1 M phosphate buffer) | further results
CNS(=O)(=O)CCc1ccc2[nH]cc(C3CCN(C)CC3)c2c1 | > 500 µM | 
CNS(=O)(=O)Cc1ccc2[nH]cc(CCN(C)C)c2c1 | > 500 µM | 
CC[C@@H](C(N)=O)N1CCCC1=O | > 500 µM | solubility [2]: 1000 mg/mL
CN1CCC[C@@H]1Cc1c[nH]c2ccc(CCS(=O)(=O)c3ccccc3)cc12 | > 500 µM | 
CCN(CC)C(=O)C1(c2ccccc2)CC1CN (stereo not drawn) | > 500 µM | 
COc1ccc(C(=O)N2CCCC2=O)cc1 | 500 µM (≈ 110 µg/mL) | 
CCCN(CCC)C(=O)Cc1c(-c2ccc(Cl)cc2)nc2ccc(Cl)cn12 [ALPIDEM] | 0.75 µM (≈ 0.303 µg/mL) | solubility [3]: 0.1 µM
Cc1nnc2n1-c1ccc(Cl)cc1C(c1ccccc1)=NC2 [ALPRAZOLAM] | 213 µM (≈ 65.8 µg/mL) | solubility [4]: 0.04 mg/mL (≈ 130 µM)
CCN1CCCC1CNC(=O)c1cc(S(=O)(=O)CC)c(N)cc1OC (stereo not drawn) [AMISULPRIDE] | > 500 µM | 
CC(N)Cc1ccccc1 (stereo not drawn) [AMPHETAMINE] | > 500 µM | 
O=C1CCc2ccc(OCCCCN3CCN(c4cccc(Cl)c4Cl)CC3)cc2N1 [ARIPIPRAZOLE] | 1.03 µM (≈ 0.462 µg/mL) | 
CNCC[C@@H](Oc1ccccc1C)c1ccccc1 [ATOMOXETINE] | > 500 µM | 
O=C1CN=C(c2ccccn2)c2cc(Br)ccc2N1 [BROMAZEPAM] | 334 µM (≈ 106 µg/mL) | 
CCCCN1CCCCC1C(=O)Nc1c(C)cccc1C (stereo not drawn) [BUPIVACAINE] | 352 µM (≈ 102 µg/mL) | solubility [5]: 0.42 mg/mL (≈ 1460 µM)
CC(NC(C)(C)C)C(=O)c1cccc(Cl)c1 (stereo not drawn) [BUPROPION] | 328 µM (≈ 78.6 µg/mL) | solubility ([6]; PBS, read-out: solubility): 10 mg/mL (≈ 41700 µM)
O=C1CC2(CCCC2)CC(=O)N1CCCCN1CCN(c2ncccn2)CC1 [BUSPIRONE] | > 500 µM | 
Oc1ccc2c(c1)[C@@]13CCCC[C@@]1(O)[C@@H](C2)N(CC1CCC1)CC3 [BUTORPHANOL] | > 500 µM | 
NC(=O)N1c2ccccc2C=Cc2ccccc21 [CARBAMAZEPINE] | > 490 µM | 
C[C@@](Cc1ccc(O)c(O)c1)(NN)C(=O)O.O [CARBIDOPA] | > 500 µM | 
CN(C)CCCC1(c2ccc(F)cc2)OCc2cc(C#N)ccc21 (stereo not drawn) [CITALOPRAM] | > 500 µM | 
O=C1CN=C(c2ccccc2Cl)c2cc([N+](=O)[O-])ccc2N1 [CLONAZEPAM] |  | solubility at 24 h, 600 µM ([1]; buffer): 30.2 µM (≈ 9.53 µg/mL); solubility [2]: < 0.1 mg/mL

SMILES | solubility at 24 h, 600 µM ([1]; 0.1 M phosphate buffer) | further results
O=C(O)C1N=C(c2ccccc2)c2cc(Cl)ccc2NC1=O (stereo not drawn) [CLORAZEPIC ACID] | > 495 µM | 
CN1CCN(C2=Nc3cc(Cl)ccc3Nc3ccccc32)CC1 [CLOZAPINE] | > 420 µM | 
CCN[C@@H](C)Cc1cccc(C(F)(F)F)c1 [DEXFENFLURAMINE] | 500 µM (≈ 116 µg/mL) | 
CN1C[C@H](C(=O)N[C@]2(C)O[C@@]3(O)[C@@H]4CCCN4C(=O)[C@H](Cc4ccccc4)N3C2=O)C[C@@H]2c3cccc4[nH]cc(c34)C[C@H]21 [DIHYDROERGOTAMINE] | 37 µM (≈ 21.6 µg/mL) | 
O=C(O[C@@H]1C[C@@H]2C[C@H]3C[C@H](C1)N2CC3=O)c1c[nH]c2ccccc12 [DOLASETRON] | 195 µM (≈ 63.3 µg/mL) | 
CCCCCc1cc(O)c2c(c1)OC(C)(C)[C@@H]1CCC(C)=C[C@@H]21 [DRONABINOL] | > 500 µM | 
CNCC[C@H](Oc1cccc2ccccc12)c1cccs1 [DULOXETINE] |  | solubility at 24 h, 600 µM ([1]; buffer): > 500 µM
CN(C)CCC[C@@]1(c2ccc(F)cc2)OCc2cc(C#N)ccc21 [ESCITALOPRAM] | > 500 µM | 
CCc1cc2c(s1)-n1c(C)nnc1CN=C2c1ccccc1Cl [ETIZOLAM] | > 480 µM | 
NC(=O)OCC(COC(N)=O)c1ccccc1 [FELBAMATE] | > 500 µM | 
CN1C(=O)CN=C(c2ccccc2F)c2cc([N+](=O)[O-])ccc21 [FLUNITRAZEPAM] | 54 µM (≈ 16.9 µg/mL) | 
CCOC(=O)Nc1ccc(NCc2ccc(F)cc2)nc1N [FLUPIRTINE] | > 500 µM | 
COCCCC/C(=N\OCCN)c1ccc(C(F)(F)F)cc1 [FLUVOXAMINE] | > 500 µM | 
NCC1(CC(=O)O)CCCCC1 [GABAPENTIN] | > 500 µM | solubility [3]: 0.441 mg/mL
CN1C2CCCC1CC(NC(=O)c1nn(C)c3ccccc13)C2 (stereo not drawn) [GRANISETRON] | > 500 µM | 
CC(C)Cc1ccc(C(C)C(=O)O)cc1 (stereo not drawn) [IBUPROFEN] |  | solubility at 24 h, 600 µM ([1]; buffer): > 500 µM; solubility ([6]; buffer): 6.02 mg/mL (≈ 29200 µM)
COC1=C(OC)C(=O)C(CCCCCCCCCCO)=C(C)C1=O [IDEBENONE] | 16 µM (≈ 5.42 µg/mL) | solubility [2]: 23.6 µM
O=C(c1ccccc1)c1ccc2n1CCC2C(=O)O (stereo not drawn) [KETOROLAC] | > 459 µM | 
Nc1nnc(-c2cccc(Cl)c2Cl)c(N)n1 [LAMOTRIGINE] | 307 µM (≈ 78.6 µg/mL) | solubility [7]: 0.00048 mg/mL (≈ 1.87 µM)
OC[C@@H](O)CN1CCN(c2ccccc2)CC1 [LEVODROPROPIZINE] | > 500 µM | 
O=C1Nc2ccc(Cl)cc2C(c2ccccc2Cl)=NC1O (stereo not drawn) [LORAZEPAM] |  | solubility at 24 h, 600 µM ([1]; buffer): 24 µM (≈ 7.71 µg/mL); solubility [2]: 0.08 mg/mL
